Laboratory results from patent US20140228440A1, “1-AMINO-ALKYLCYCLOHEXANE DERIVATIVES FOR THE TREATMENT OF INFLAMMATORY SKIN DISEASES” (MERZ PHARMA GmbH & CO. KGaA, priority 2008, published 2014).

Tests used:
Assay in all cases: MIC and MBC by the agar dilution method
Type in all cases: cell-based
[1] = tested on: Propionibacterium avidum ATCC 25577; settings: pH 5.5
Protocol: (§1) To assess the anti-microbial potency of Neramexane against acne relevant bacterias the minimal inhibitory concentration (MIC) and minimal bactericidal concentration (MBC) against the following bacterias is established: The MICs of the samples are determined using the agar dilution method based on DIN 58940. Petri dishes of 5.5 cm diameter are poured with 2.5 ml of freshly prepared Mueller-Hinton agar (Merck company, Cat-No 1.05437) or Wilkins-Chalgren-Agar (Oxoid company, Cat-No CM643), maintained in liquid form at 50° C., to which the sample dilutions at various concentrations have been added at 50.0 vol.-%. To prepare the starting sample dilutions, a 12.5%, 3.12% suspension of the respective sample solution is prepared with Aqua purificata. From these stock-solutions, further dilutions are prepared with Aqua purificata. All test compounds are adjusted to pH 5.5. For test product no. 1, separate dilutions adjusted to pH 6.0 and pH 7.4 are also prepared. For inoculation, 1 μl of the respective germ suspension is placed on the centre of each agar plate. After drying, inoculated plates are incubated at 36.0±2.0° C. The basis for the length of incubation period is the respective growth control cultivated in parallel. The test microbe suspension is prepared by inoculating a few individual colonies of the respective bacteria into sterile saline solution until a turbidity corresponding to the McFarland standard 1.0 (approximately 10^8 cfu/ml) is reached. After that, the test microbe suspensions are further diluted 1:10 with saline solution and the microbial counts (see Table 21) are determined by the surface spread method using a spiral plater. The agar plates are incubated under the conditions given in Table 22 and subsequently evaluated. The MIC-values as given represent the lowest concentration of the active substance at which there is no macroscopically visible growth. Minimal, barely visible growth or few small individual colonies are evaluated as inhibition. [table] All negative tests of the determination of the minimal bactericial concentration are the basis of verification of remaining germs, the inoculated agar segments are cut and put in Mueller-Hinton-Bouillon (germ 1) or Wilkins-Chalgren-Bouillon (germs 2-4). After an adequate incubation period at 36.0±2.0° C. (as judged from a control without test compound), the tests are checked manually on microbial growth (=turbidity) and the minimal bactericidal concentration is determined. MBC indicates the concentration without marked turbidity. Grown germs are checked for identity to rule out unspecific contaminations. The following results are summarized and tabulated: • a) Results of the Minimal Inhibitory Concentration (MIC)* • b) Results of the Minimal Bactericidal Concentration (MBC) *The MIC is the concentration without macroscopical growth. Scarcely apparent, minimum growth or few single colonies are not considered. The controls must have a respectively good developed growth. There must be no growth on the agar plates for the sterile control. The growth of bacteria is indicated for the duplicate plates by a +(i.e., growth) or a −(i.e., no growth), +− indicates weak growth on both plates or growth on one plate and no growth on the other plate. All bacteria show appropriate growth on the respective control plate not containing any test compound. No influence of the used diluent (Aqua purifacata) was observed. No contamination is observed on the control-plates.

[2] = tested on: Staphylococcus epidermidis ATCC 12228; settings: pH 5.5
Protocol: as §1

[3] = tested on: Propionibacterium granulosum ATCC 11829
Protocol: as §1

[4] = final concentration 0.08 %, pH 5.5
[5] = final concentration 0.08 %, pH 6.0
[6] = final concentration 0.08 %, pH 7.4
[7] = final concentration 0.16 %, pH 5.5
[8] = final concentration 0.16 %, pH 6.0
[9] = final concentration 0.16 %, pH 7.4
[10] = final concentration 0.31 %, pH 5.5
[11] = final concentration 0.31 %, pH 6.0
[12] = final concentration 0.31 %, pH 7.4
[13] = final concentration 0.63 %, pH 5.5
[14] = final concentration 0.63 %, pH 6.0
[15] = final concentration 0.63 %, pH 7.4
[16] = final concentration 1.56 %, pH 5.5
[17] = final concentration 1.56 %, pH 6.0
[18] = final concentration 1.56 %, pH 7.4
[19] = final concentration 2.50 %, pH 5.5
[20] = final concentration 2.50 %, pH 6.0
[21] = final concentration 2.50 %, pH 7.4
[22] = final concentration 3.13 %, pH 5.5
[23] = final concentration 3.13 %, pH 6.0
[24] = final concentration 3.13 %, pH 7.4
[25] = final concentration 6.25 %, pH 5.5
[26] = final concentration 6.25 %, pH 6.0
[27] = final concentration 6.25 %, pH 7.4

CC1(C)CC(C)(C)CC(C)(N)C1.CS(=O)(=O)O [Neramexane mesylate] was tested, and the “growth of bacteria on duplicate plates (MIC determination)” value (shortened to “growth of bacteria on duplicate plates”) ([1]; final concentration 0.01 %) was “+ +”, the “growth of bacteria on duplicate plates” value ([1]; final concentration 0.04 %) was “+ +” and the “growth of bacteria (MBC determination)” value ([1]; final concentration 0.08 %) was “+ +”. For the same compound, the “growth of bacteria on duplicate plates” value ([1]; final concentration 0.08 %) was “− −”, the “growth of bacteria (MBC determination)” value ([1]; final concentration 0.16 %) was “+ +” and the “growth of bacteria on duplicate plates” value ([1]; final concentration 0.16 %) was “− −”. The “growth of bacteria (MBC determination)” value ([1]; final concentration 0.31 %) was “+ +”, the “growth of bacteria on duplicate plates” value ([1]; final concentration 0.31 %) was “− −” and the “growth of bacteria (MBC determination)” value ([1]; final concentration 0.63 %) was “− −”. For the same compound, the “growth of bacteria on duplicate plates” value ([1]; final concentration 0.63 %) was “− −”, the “growth of bacteria (MBC determination)” value ([1]; final concentration 1.56 %) was “− −” and the “growth of bacteria on duplicate plates” value ([1]; final concentration 1.56 %) was “− −”. For the same compound, the “growth of bacteria (MBC determination)” value ([1]; final concentration 2.50 %) was “− −”, the “growth of bacteria on duplicate plates” value ([1]; final concentration 2.50 %) was “− −” and the “growth of bacteria (MBC determination)” value ([1]; final concentration 3.13 %) was “− −”. For the same compound, the “growth of bacteria on duplicate plates” value ([1]; final concentration 3.13 %) was “− −”, the “growth of bacteria (MBC determination)” value ([1]; final concentration 6.25 %) was “− −” and the “growth of bacteria on duplicate plates” value ([1]; final concentration 6.25 %) was “− −”. The MBC [1] was 0.63%, the MIC [1] was 0.08% and the “growth of bacteria on duplicate plates” value ([2]; final concentration 0.01 %) was “+ +”. The “growth of bacteria on duplicate plates” value ([2]; final concentration 0.04 %) was “+ +”, the “growth of bacteria on duplicate plates” value ([2]; final concentration 0.08 %) was “+ +” and the “growth of bacteria (MBC determination)” value ([2]; final concentration 0.16 %) was “+ +”. For the same compound, the “growth of bacteria on duplicate plates” value ([2]; final concentration 0.16 %) was “− −”, the “growth of bacteria (MBC determination)” value ([2]; final concentration 0.31 %) was “+ +” and the “growth of bacteria on duplicate plates” value ([2]; final concentration 0.31 %) was “− −”. The “growth of bacteria (MBC determination)” value ([2]; final concentration 0.63 %) was “+ +”, the “growth of bacteria on duplicate plates” value ([2]; final concentration 0.63 %) was “− −” and the “growth of bacteria (MBC determination)” value ([2]; final concentration 1.56 %) was “− −”. For the same compound, the “growth of bacteria on duplicate plates” value ([2]; final concentration 1.56 %) was “− −”, the “growth of bacteria (MBC determination)” value ([2]; final concentration 2.50 %) was “− −” and the “growth of bacteria on duplicate plates” value ([2]; final concentration 2.50 %) was “− −”. The “growth of bacteria (MBC determination)” value ([2]; final concentration 3.13 %) was “− −”, the “growth of bacteria on duplicate plates” value ([2]; final concentration 3.13 %) was “− −” and the “growth of bacteria (MBC determination)” value ([2]; final concentration 6.25 %) was “− −”. The “growth of bacteria on duplicate plates” value ([2]; final concentration 6.25 %) was “− −”, the MBC [2] was 1.56% and the MIC [2] was 0.16%. For the same compound, the “growth of bacteria on duplicate plates” value ([3]; final concentration 0.01 %, pH 5.5) was “+ +”, the “growth of bacteria on duplicate plates” value ([3]; final concentration 0.01 %, pH 6.0) was “+ +” and the “growth of bacteria on duplicate plates” value ([3]; final concentration 0.01 %, pH 7.4) was “+ +”. The “growth of bacteria on duplicate plates” value ([3]; final concentration 0.04 %, pH 5.5) was “+ +”, the “growth of bacteria on duplicate plates” value ([3]; final concentration 0.04 %, pH 6.0) was “+ −” and the “growth of bacteria on duplicate plates” value ([3]; final concentration 0.04 %, pH 7.4) was “+ −”. The “growth of bacteria (MBC determination)” value [3, 4] was “+ +”, the “growth of bacteria on duplicate plates” value [3, 4] was “− −” and the “growth of bacteria (MBC determination)” value [3, 5] was “+ +”. For the same compound, the “growth of bacteria on duplicate plates” value [3, 5] was “− −”, the “growth of bacteria (MBC determination)” value [3, 6] was “+ +” and the “growth of bacteria on duplicate plates” value [3, 6] was “− −”. For the same compound, the “growth of bacteria (MBC determination)” value [3, 7] was “+ +”, the “growth of bacteria on duplicate plates” value [3, 7] was “− −” and the “growth of bacteria (MBC determination)” value [3, 8] was “+ +”. For the same compound, the “growth of bacteria on duplicate plates” value [3, 8] was “− −”, the “growth of bacteria (MBC determination)” value [3, 9] was “+ +” and the “growth of bacteria on duplicate plates” value [3, 9] was “− −”. The “growth of bacteria (MBC determination)” value [3, 10] was “+ +”, the “growth of bacteria on duplicate plates” value [3, 10] was “− −” and the “growth of bacteria (MBC determination)” value [3, 11] was “− −”. For the same compound, the “growth of bacteria on duplicate plates” value [3, 11] was “− −”, the “growth of bacteria (MBC determination)” value [3, 12] was “+ +” and the “growth of bacteria on duplicate plates” value [3, 12] was “− −”. For the same compound, the “growth of bacteria (MBC determination)” value [3, 13] was “− −”, the “growth of bacteria on duplicate plates” value [3, 13] was “− −” and the “growth of bacteria (MBC determination)” value [3, 14] was “− −”. The “growth of bacteria on duplicate plates” value [3, 14] was “− −”, the “growth of bacteria (MBC determination)” value [3, 15] was “+ +” and the “growth of bacteria on duplicate plates” value [3, 15] was “− −”. For the same compound, the “growth of bacteria (MBC determination)” value [3, 16] was “− −”, the “growth of bacteria on duplicate plates” value [3, 16] was “− −” and the “growth of bacteria (MBC determination)” value [3, 17] was “− −”. The “growth of bacteria on duplicate plates” value [3, 17] was “− −”, the “growth of bacteria (MBC determination)” value [3, 18] was “− −” and the “growth of bacteria on duplicate plates” value [3, 18] was “− −”. The “growth of bacteria (MBC determination)” value [3, 19] was “− −”, the “growth of bacteria on duplicate plates” value [3, 19] was “− −” and the “growth of bacteria (MBC determination)” value [3, 20] was “− −”. For the same compound, the “growth of bacteria on duplicate plates” value [3, 20] was “− −”, the “growth of bacteria (MBC determination)” value [3, 21] was “− −” and the “growth of bacteria on duplicate plates” value [3, 21] was “− −”. For the same compound, the “growth of bacteria (MBC determination)” value [3, 22] was “− −”, the “growth of bacteria on duplicate plates” value [3, 22] was “− −” and the “growth of bacteria (MBC determination)” value [3, 23] was “− −”. For the same compound, the “growth of bacteria on duplicate plates” value [3, 23] was “− −”, the “growth of bacteria (MBC determination)” value [3, 24] was “− −” and the “growth of bacteria on duplicate plates” value [3, 24] was “− −”. The “growth of bacteria (MBC determination)” value [3, 25] was “− −”, the “growth of bacteria on duplicate plates” value [3, 25] was “− −” and the “growth of bacteria (MBC determination)” value [3, 26] was “− −”. For the same compound, the “growth of bacteria on duplicate plates” value [3, 26] was “− −”, the “growth of bacteria (MBC determination)” value [3, 27] was “− −” and the “growth of bacteria on duplicate plates” value [3, 27] was “− −”. The MBC ([3]; pH 5.5) was 0.63%, the MIC ([3]; pH 5.5) was 0.08% and the MBC ([3]; pH 6.0) was 0.31%. The MIC ([3]; pH 6.0) was 0.08%, the MBC ([3]; pH 7.4) was 1.56% and the MIC ([3]; pH 7.4) was 0.08%.
